Measured values from article PMC9151520 (Archives of Toxicology, 2022).
Where two headings read alike, the source gives them in different places.

Assays:
in vitro = conditions: male, Sprague Dawley, rat, microsomes, pH 7.4
[1] = tested on: p53 signaling (p53RE-bla HCT-116 cells); assay: cells; type: cell-based
[2] = tested on: p53 signaling (p53RE-bla HCT-116 cells); assay: cells; type: cell-based; remark: listed apart in the source
[3] = tested on: p53 signaling (p53RE-bla HCT-116 cells)
[4] = rat
[5] = tested on: p53 signaling (p53RE-bla HCT-116 cells); assay: cells; type: cell-based; conditions: for Emax: HCT-116, read-out: efficacy
[6] = tested on: p53 signaling (p53RE-bla HCT-116 cells); assay: cells; conditions: Homo sapiens
[7] = HCT-116, read-out: p53 activation EC50, cherry pick confirmation
[8] = HCT-116, read-out: p53 activation efficacy, cherry pick confirmation
[9] = HCT-116, read-out: p53 activation EC50, primary screening
[10] = HCT-116, read-out: p53 activation efficacy, primary screening

Compound | Viability EC50, cherry pick confirmation (p53RE-bla HCT-116 cells) | Viability EC50, primary screening (p53RE-bla HCT-116 cells) | Viability efficacy, cherry pick confirmation (p53RE-bla HCT-116 cells) | Viability efficacy, primary screening (p53RE-bla HCT-116 cells) | half-life (in vitro) [min] | p53 activation EC50, cherry pick confirmation [1] | p53 activation EC50, primary screening [1] | p53 activation efficacy, cherry pick confirmation [1] | p53 activation efficacy, primary screening [1] | EC50 [2] | p53 activation EC50, cherry pick confirmation [3] | p53 activation efficacy, cherry pick confirmation [3] | Depletion after 16 h of incubation with cells [4] [%] | EC50 ([5]; Homo sapiens, HCT-116) [µM] | Emax ([5]; Homo sapiens) [%] | EC50 ([6]; HCT-116) [µM] | Emax ([6]; HCT-116, read-out: efficacy) [%] | EC50 [6, 7] [µM] | Emax [6, 8] [%] | p53 activation EC50, primary screening [3] | further results
CCOP(=S)(NC(C)C)Oc1ccccc1C(=O)OC(C)C (stereo not drawn) [Isofenphos] | inactive | inactive | inactive | inactive | 1.25 ± 0.47 | inactive | inactive | inactive | inactive | Inactive | inactive | inactive | 88.45 ± 1.49 | 0.81 | 54.3 | 0.75 | 42.6 | 0.777 | 42.6 | – | –
CCSC(=O)N1CCCCCC1 [Molinate] | inactive | inactive | inactive | inactive | 12 ± 0.18 | inactive | inactive | inactive | inactive | Inactive | inactive | inactive | 97.58 ± 0.19 | 0.3 | 44.1 | 0.35 | 40.5 | 0.355 | 39.9 | inactive | p53 activation efficacy, primary screening [3]: inactive; EC50 [6, 9]: 1.85 µM; Emax [6, 10]: 45.3%
Cc1nc(N(C)C)nc(OC(=O)N(C)C)c1C [Pirimicarb] | – | – | – | – | 11.7 ± 0.52 | – | – | – | – | – | – | – | – | – | – | – | – | – | – | – | –
c1ccc2c(c1)[nH]c1cnccc12 [Norharman] | inactive | inactive | inactive | inactive | – | inactive | – | inactive | – | Inactive | inactive | inactive | 85.03 ± 0.42 | 20 | 76.4 | 28.1 | 73.8 | 29.6 | 71 | inactive | EC50 ([1]; Homo sapiens, HCT-116, read-out: p53 activation EC50, primary screening): 41.4 µM; p53 activation efficacy, primary screening [3]: inactive; EC50 [6, 9]: 32.6 µM
Cc1cc(=O)n(-c2ccccc2)n1C [antipyrine, reference compound] | – | – | – | – | > 120 | – | – | – | – | – | – | – | – | – | – | – | – | – | – | – | –
COc1c2ccoc2cc2oc(=O)ccc12 [5-Methoxypsoralen] | inactive | inactive | inactive | inactive | 21.1 ± 3.72 | inactive | inactive | inactive | inactive | Inactive | inactive | inactive | 45.7 ± 3.67 | 13.2 | 75 | 16.4 | 72.3 | 9.45 | 62.5 | inactive | p53 activation efficacy, primary screening [3]: inactive; EC50 [6, 9]: 20.9 µM; Emax [6, 10]: 81.3%
CCOP(=S)(OCC)Oc1cnc2ccccc2n1 [Quinalphos] | inactive | inactive | inactive | inactive | 2.49 ± 0.04 | inactive | inactive | inactive | inactive | Inactive | inactive | inactive | 96.66 ± 0.83 | – | – | 9.46 | 32.7 | 7.65 | 34.3 | – | EC50 [5]: Inactive
Cc1cccc2c1cc1ccc3cccc4ccc2c1c34 [7-Methylbenzo(a)pyrene] | – | – | – | – | – | – | – | – | – | – | – | – | 52.01 ± 27.41 | 27.5 | – | 34.3 | – | – | – | – | Viability EC50, HLM (p53RE-bla HCT-116 cells): inactive; Viability EC50, No MS (p53RE-bla HCT-116 cells): inactive; Viability EC50, RLM (p53RE-bla HCT-116 cells): inactive; Viability Efficacy, HLM (p53RE-bla HCT-116 cells): inactive; Viability Efficacy, No MS (p53RE-bla HCT-116 cells): inactive; Viability Efficacy, RLM (p53RE-bla HCT-116 cells): inactive; p53 activation Efficacy, No MS [1]: 64.7403%; Emax ([1]; Homo sapiens, HCT-116, read-out: p53 activation Efficacy, No MS): 59.2%; EC50 ([2]; Homo sapiens, HCT-116, 0.5 h): 32.9 µM
